Results published in patent publication US20130096100A1, “DI(ARYLAMINO)ARYL COMPOUND” (ASTELLAS PHARMA INC., priority 2007, published 2013).

What was measured:
MER = biological target: T1, MER (Homo sapiens, UniProt Q12866); test: Kinase inhibition profiling, MER (Test Example 6); format: biochemical; settings: 100 nM; read-out: inhibitory activity against MER
T1 construct: purchased Carna Biosciences Inc., Japan (contract measurement)
T1 sequence (Q12866 21-999): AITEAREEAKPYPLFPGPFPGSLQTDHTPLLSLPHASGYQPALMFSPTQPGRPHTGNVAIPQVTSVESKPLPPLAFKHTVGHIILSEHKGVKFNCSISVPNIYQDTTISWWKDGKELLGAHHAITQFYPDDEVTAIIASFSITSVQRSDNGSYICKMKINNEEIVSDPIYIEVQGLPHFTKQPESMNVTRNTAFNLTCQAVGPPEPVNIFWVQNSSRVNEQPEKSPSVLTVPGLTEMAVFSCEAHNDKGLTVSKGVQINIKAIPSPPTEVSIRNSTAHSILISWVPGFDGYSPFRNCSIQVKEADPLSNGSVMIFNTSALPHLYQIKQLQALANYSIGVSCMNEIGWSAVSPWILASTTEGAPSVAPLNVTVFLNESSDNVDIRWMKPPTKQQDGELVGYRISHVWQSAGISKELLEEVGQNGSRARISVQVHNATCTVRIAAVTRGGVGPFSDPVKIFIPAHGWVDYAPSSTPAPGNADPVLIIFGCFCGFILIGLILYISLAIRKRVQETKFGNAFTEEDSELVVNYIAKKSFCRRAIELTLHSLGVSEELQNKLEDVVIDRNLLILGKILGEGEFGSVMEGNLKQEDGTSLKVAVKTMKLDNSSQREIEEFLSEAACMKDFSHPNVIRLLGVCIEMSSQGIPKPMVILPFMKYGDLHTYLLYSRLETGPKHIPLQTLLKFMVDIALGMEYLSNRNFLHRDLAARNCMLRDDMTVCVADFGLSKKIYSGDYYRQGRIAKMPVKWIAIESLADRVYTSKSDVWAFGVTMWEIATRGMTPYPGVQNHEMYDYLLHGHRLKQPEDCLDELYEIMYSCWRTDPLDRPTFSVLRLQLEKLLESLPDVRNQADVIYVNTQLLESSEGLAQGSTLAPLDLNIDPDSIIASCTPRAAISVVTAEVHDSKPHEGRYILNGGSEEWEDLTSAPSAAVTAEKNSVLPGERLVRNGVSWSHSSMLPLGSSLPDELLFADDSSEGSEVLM

MNK1 = biological target: T2, MNK1 (Homo sapiens, UniProt Q9BUB5); test: Kinase inhibition profiling, MNK1 (Test Example 6); format: biochemical; settings: 100 nM; read-out: inhibitory activity against MNK1
T2 construct: purchased Carna Biosciences Inc., Japan (contract measurement)
T2 sequence (Q9BUB5 whole entry): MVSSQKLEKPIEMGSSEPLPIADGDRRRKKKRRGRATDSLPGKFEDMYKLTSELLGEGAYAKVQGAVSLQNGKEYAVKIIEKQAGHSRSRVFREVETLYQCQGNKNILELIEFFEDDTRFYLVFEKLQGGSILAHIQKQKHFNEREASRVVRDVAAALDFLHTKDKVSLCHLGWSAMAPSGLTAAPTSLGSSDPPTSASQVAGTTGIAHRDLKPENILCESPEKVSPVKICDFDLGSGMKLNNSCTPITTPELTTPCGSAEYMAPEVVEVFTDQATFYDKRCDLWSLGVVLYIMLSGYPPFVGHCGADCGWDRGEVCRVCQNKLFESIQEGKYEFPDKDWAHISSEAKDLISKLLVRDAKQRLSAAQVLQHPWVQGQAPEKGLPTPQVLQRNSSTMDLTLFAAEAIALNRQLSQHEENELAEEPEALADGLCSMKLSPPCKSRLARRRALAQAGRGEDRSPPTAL

COc1cc(N2CCC(N3CCN(C)CC3)CC2)ccc1Nc1ncnc(Nc2ccccc2S(=O)(=O)C(C)C)n1 [Example 23]
inhibition at 0.1 µM (MER): < 20%
inhibition at 0.1 µM (MNK1): 60%
